Reference: ChEMBL document CHEMBL3390836, “Mannich- and LedererManasse-based analogues of the natural product S-(+)-curcuphenol as cancer proliferation and migration inhibitors” (Medchemcomm, 2012)

Tests used:
HT-29 [1] = experiment: Cytotoxicity against human HT-29 cells assessed as cell growth at 10^-6 M after 48 hrs by SRB assay relative to control; type: functional; details: HT-29, 48 h, read-out: Activity
RPMI-8226 = experiment: Cytotoxicity against human RPMI8226 cells assessed as cell growth at 10 uM after 48 hrs by SRB assay relative to control; type: functional; details: RPMI-8226, 48 h, read-out: Activity
[2] = Cytotoxicity against human UO31 cells assessed as cell growth at 10 uM after 48 hrs by SRB assay relative to control; type: functional; details: UO-31, 48 h, read-out: Activity
IGROV-1 = experiment: Cytotoxicity against human IGROV1 cells assessed as cell growth at 10 uM after 48 hrs by SRB assay relative to control; type: functional; details: IGROV-1, 48 h, read-out: Activity
[3] = Cytotoxicity against human PC3 cells assessed as cell growth at 10 uM after 48 hrs by SRB assay relative to control; type: functional; details: PC-3, 48 h, read-out: Activity
SF-539 = experiment: Cytotoxicity against human SF539 cells assessed as cell growth at 10 uM after 48 hrs by SRB assay relative to control; type: functional; details: SF-539, 48 h, read-out: Activity
MOLT-4 = experiment: Cytotoxicity against human MOLT4 cells assessed as cell growth at 10 uM after 48 hrs by SRB assay relative to control; type: functional; details: MOLT-4, 48 h, read-out: Activity
NCI-H23 = experiment: Cytotoxicity against human NCI-H23 cells assessed as cell growth at 10 uM after 48 hrs by SRB assay relative to control; type: functional; details: NCI-H23, 48 h, read-out: Activity
HOP-92 = experiment: Cytotoxicity against human HOP92 cells assessed as cell growth at 10 uM after 48 hrs by SRB assay relative to control; type: functional; details: HOP-92, 48 h, read-out: Activity
[4] = Cytotoxicity against human UACC257 cells assessed as cell growth at 10 uM after 48 hrs by SRB assay relative to control; type: functional; details: UACC-257, 48 h, read-out: Activity
MDA-MB-231 [5] = experiment: Cytotoxicity against human MDA-MB-231 cells assessed as cell growth at 10^-6 M after 48 hrs by SRB assay relative to control; type: functional; details: MDA-MB-231, 48 h, read-out: Activity
A549 = experiment: Cytotoxicity against human A549 cells assessed as cell growth at 10 uM after 48 hrs by SRB assay relative to control; type: functional; details: A549, 48 h, read-out: Activity
KM12 [6] = experiment: Cytotoxicity against human KM12 cells assessed as cell growth at 10^-7 M after 48 hrs by SRB assay relative to control; type: functional; details: KM12, 48 h, read-out: Activity
[7] = Cytotoxicity against human EKVX cells assessed as cell growth at 10 uM after 48 hrs by SRB assay relative to control; type: functional; details: read-out: Activity
MCF7 [8] = experiment: Growth inhibition of human MCF7 cells after 72 hrs by MTT assay; type: functional, cell-based; details: MCF7, 72 h
[9] = Cytotoxicity against human OVCAR8 cells assessed as cell growth at 10 uM after 48 hrs by SRB assay relative to control; type: functional; details: OVCAR-8, 48 h, read-out: Activity
[10] = Cytotoxicity against human OVCAR5 cells assessed as cell growth at 10 uM after 48 hrs by SRB assay relative to control; type: functional; details: OVCAR-5, 48 h, read-out: Activity
CCRF-CEM = experiment: Cytotoxicity against human CCRF-CEM cells assessed as cell growth at 10 uM after 48 hrs by SRB assay relative to control; type: functional; details: read-out: Activity
MDA-MB-435 = experiment: Cytotoxicity against human MDA-MB-435 cells assessed as cell growth at 10^-6 M after 48 hrs by SRB assay relative to control; type: functional; details: MDA-MB-435, 48 h, read-out: Activity
MDA-MB-231 [11] = experiment: Cytotoxicity against human MDA-MB-231 cells assessed as growth inhibition after 24 hrs by MTT assay; type: cell-based; details: MDA-MB-231, 24 h
BT-549 = experiment: Cytotoxicity against human BT549 cells assessed as cell growth at 10 uM after 48 hrs by SRB assay relative to control; type: functional; details: BT-549, 48 h, read-out: Activity
NCI-H522 = experiment: Cytotoxicity against human NCI-H522 cells assessed as cell growth at 10 uM after 48 hrs by SRB assay relative to control; type: functional; details: NCI-H522, 48 h, read-out: Activity
HT-29 [12] = experiment: Cytotoxicity against human HT-29 cells assessed as cell growth at 10 uM after 48 hrs by SRB assay relative to control; type: functional; details: HT-29, 48 h, read-out: Activity
KM12 [13] = experiment: Cytotoxicity against human KM12 cells assessed as cell growth at 10 uM after 48 hrs by SRB assay relative to control; type: functional; details: KM12, 48 h, read-out: Activity
SW-620 = experiment: Cytotoxicity against human SW620 cells assessed as cell growth at 10^-6 M after 48 hrs by SRB assay relative to control; type: functional; details: SW-620, 48 h, read-out: Activity
MCF7 [14] = experiment: Cytotoxicity against human MCF7 cells assessed as cell growth at 10 uM after 48 hrs by SRB assay relative to control; type: functional; details: MCF7, 48 h, read-out: Activity
M14 = experiment: Cytotoxicity against human M14 cells assessed as cell growth at 10 uM after 48 hrs by SRB assay relative to control; type: functional; details: M14, 48 h, read-out: Activity
MDA-MB-231 [15] = experiment: Antimigratory activity against human MDA-MB-231 cells after 24 hrs by wound-healing assay; type: functional, cell-based; details: MDA-MB-231, 24 h
NCI-H226 = experiment: Cytotoxicity against human NCI-H226 cells assessed as cell growth at 10^-7 M after 48 hrs by SRB assay relative to control; type: functional; details: NCI-H226, 48 h, read-out: Activity
ACHN = experiment: Cytotoxicity against human ACHN cells assessed as cell growth at 10 uM after 48 hrs by SRB assay relative to control; type: functional; details: read-out: Activity
[16] = Cytotoxicity against human UACC62 cells assessed as cell growth at 10^-7 M after 48 hrs by SRB assay relative to control; type: functional; details: UACC-62, 48 h, read-out: Activity
[17] = Cytotoxicity against human Hs 578T cells after 48 hrs by SRB assay; type: functional
SF-295 = experiment: Cytotoxicity against human SF295 cells assessed as cell growth at 10 uM after 48 hrs by SRB assay relative to control; type: functional; details: SF-295, 48 h, read-out: Activity
Malme-3M = experiment: Cytotoxicity against human MALME-3M cells assessed as cell growth at 10 uM after 48 hrs by SRB assay relative to control; type: functional; details: read-out: Activity
DU-145 = experiment: Cytotoxicity against human DU145 cells assessed as cell growth at 10 uM after 48 hrs by SRB assay relative to control; type: functional; details: DU-145, 48 h, read-out: Activity
SR = experiment: Cytotoxicity against human SR cells assessed as cell growth at 10 uM after 48 hrs by SRB assay relative to control; type: functional; details: read-out: Activity
SF-268 = experiment: Cytotoxicity against human SF268 cells assessed as cell growth at 10 uM after 48 hrs by SRB assay relative to control; type: functional; details: SF-268, 48 h, read-out: Activity

Structure (SMILES) | growth at 10 µM (RPMI-8226) [%] | growth at 10 µM [2] [%] | growth at 10 µM (IGROV-1) [%] | growth at 10 µM [3] [%] | growth at 10 µM (SF-539) [%] | growth at 10 µM (MOLT-4) [%] | growth at 10 µM (NCI-H23) [%] | growth at 10 µM [4] [%] | growth at 10 µM (A549) [%] | growth at 10 µM [7] [%] | IC50 (MCF7 [8]) [µM] | growth at 10 µM [9] [%] | growth at 10 µM [10] [%] | growth at 10 µM (CCRF-CEM) [%] | IC50 (MDA-MB-231 [11]) [µM] | growth at 10 µM (HT-29 [12]) [%] | growth at 10 µM (KM12 [13]) [%] | growth at 10 µM (MCF7 [14]) [%] | growth at 10 µM (M14) [%] | IC50 (MDA-MB-231 [15]) [µM] | further results
COc1ccc(CCN2COc3c([C@@H](C)CCC=C(C)C)ccc(C)c3C2)cc1OC | -10 | 10 | -44 | -25 | 25 | 23 | -29 | 3 | 51 | 33 | 6.7 | 24 | 47 | 14 | > 20 | -29 | -2 | 4 | -91 | 9.5 | growth at 1 µM (HT-29 [1]): 91%; growth at 10 µM (HOP-92): -1.29%; growth at 1 µM (MDA-MB-231 [5]): 91%; growth at 0.1 µM (KM12 [6]): 96%; growth at 1 µM (MDA-MB-435): 96%; growth at 10 µM (BT-549): 87.9%; growth at 10 µM (NCI-H522): 64.7%; growth at 1 µM (SW-620): 93%; growth at 0.1 µM (NCI-H226): 88%; growth at 10 µM (ACHN): 41%; growth at 0.1 µM [16]: 90%; GI50 [17]: 3.94 µM; LC50 [17]: 65.2 µM; TGI [17]: 17.3 µM; growth at 10 µM (SF-295): -18%; growth at 10 µM (Malme-3M): -78%
CC(C)=CCC[C@H](C)c1ccc(C)c2c1OCN(CCCCCO)C2 | 76.7 | 57 | 90.4 | 68.6 | 84.5 | 66.5 | 91.3 | 78.4 | 82.5 | 102 | 6.9 | 90.1 | 87.4 | 96 | > 20 | 27.2 | 104 | 88.7 | 84.2 | 10 | growth at 10 µM (DU-145): 109%; growth at 10 µM (HOP-92): 27.7%; growth at 10 µM (SR): 66.6%; growth at 10 µM (BT-549): 72.1%; growth at 10 µM (NCI-H522): -1.75%; growth at 10 µM (SF-268): 97.5%; growth at 10 µM (ACHN): 94.1%; growth at 10 µM (SF-295): 110%; growth at 10 µM (Malme-3M): 93.7%
CC(C)=CCC[C@H](C)c1ccc(C)c2c1OCN(CC1CCNCC1)C2 | 23.7 | 60.5 | 78.7 | 59.4 | 73 | 34.1 | 79 | 24.6 | 54.1 | 81 | 8.1 | 75.3 | 76 | 26.7 | > 20 | -68.5 | 38.4 | 36 | -95.4 | 8.1 | growth at 1 µM (HT-29 [1]): 103%; growth at 10 µM (DU-145): 93.9%; growth at 10 µM (HOP-92): 12.3%; growth at 1 µM (MDA-MB-231 [5]): 99%; growth at 0.1 µM (KM12 [6]): 99%; growth at 10 µM (SR): -8.52%; growth at 1 µM (MDA-MB-435): 96%; growth at 10 µM (BT-549): 55.8%; growth at 1 µM (SW-620): 103%; growth at 10 µM (SF-268): 93%; growth at 0.1 µM (NCI-H226): 98%; growth at 10 µM (ACHN): 64%; growth at 0.1 µM [16]: 96%; GI50 [17]: 13.3 µM; LC50 [17]: 67 µM; TGI [17]: 29.9 µM; growth at 10 µM (SF-295): 80%; growth at 10 µM (Malme-3M): 90%
CC(C)=CCC[C@H](C)c1ccc(C)c(CNCC2CCNCC2)c1O | 61.7 | 64.3 | 83.4 | 85 | 84 | 77 | 84 | 64.2 | 86 | 67 | > 20 | 85 | 82 | 71.3 | > 20 | 8.29 | 84 | 78.2 | 46.7 | > 20 | growth at 1 µM (HT-29 [1]): 113%; growth at 10 µM (DU-145): 91.2%; growth at 1 µM (MDA-MB-231 [5]): 104%; growth at 0.1 µM (KM12 [6]): 97%; growth at 10 µM (SR): 0.23%; growth at 1 µM (MDA-MB-435): 92%; growth at 10 µM (NCI-H522): 86.8%; growth at 1 µM (SW-620): 99%; growth at 10 µM (SF-268): 87.7%; growth at 0.1 µM (NCI-H226): 79%; growth at 10 µM (ACHN): 81%; growth at 0.1 µM [16]: 90%; GI50 [17]: 6.53 µM; LC50 [17]: > 25 µM; TGI [17]: > 25 µM; growth at 10 µM (SF-295): 67%; growth at 10 µM (Malme-3M): 88%
